Experimental data from publication PMC4919188 (Nature, 2016).

Experiments:
[1] = tested on: high-threshold colonic afferents from CVH mice; test: Ex vivo gut-nerve recording, high-threshold colonic afferents, CVH mice; design: species or system mouse
P0 mouse TG neurons = test: Ratiometric calcium imaging, P0 mouse TG neurons; type: cell-based; settings: ICA-121431 500 nM, SGTx1 500 nM; P0 mouse neurons (Extended Data Fig. 1d)
[2] = tested on: high-threshold colonic afferents from healthy mice; test: Ex vivo gut-nerve recording, high-threshold colonic afferents, healthy mice; design: species or system mouse; settings: ICA-121432 with or without Hm1a (100 nM), afferents/total
[3] = tested on: nerve-injury evoked mechanical allodynia; settings: cited from earlier work
[4] = tested on: mouse paw mechanical response threshold; test: Von Frey test, mechanical sensitivity; type: in vivo; settings: native Hm1b 500 nM intraplantar, n = 5

Compound: O=C(Nc1ccc(S(=O)(=O)Nc2nccs2)cc1)C(c1ccccc1)c1ccccc1 [ICA-121431]
- sensitizing effects of Hm1a ([1]; ICA-121431 with Hm1a): blocked the sensitizing effects of Hm1a
- afferents unaltered by ICA ([1]; ICA-121432 with or without Hm1a, afferents/total): 3/10
- block of SGTx1-evoked calcium responses (P0 mouse TG neurons): only partially blocked
- afferents unaltered by ICA [2]: 5/10

Compound: NC(=O)c1cn(Cc2c(F)cccc2F)nn1 [rufinamide]
- effect on nerve-injury evoked mechanical allodynia [3]: diminish nerve-injury evoked mechanical allodynia

Compound: Hm1b: inhibitor cysteine knot (ICK) peptide from venom of the tarantula Heteroscodra maculata
- mechanical sensitization compared with Hm1a [4]: Equivalent mechanical sensitization
